Assay results reported in paper PMC3690538, “Structure of Rhomboid Protease in Complex with β-Lactam Inhibitors Defines the S2′ Cavity” (Structure(London, England:1993), 2013).

Molecular target: T1, GlpG (Escherichia coli, UniProt P09391)
T1 construct: purified intramembrane serine protease in detergent
T1 sequence (P09391 1-276): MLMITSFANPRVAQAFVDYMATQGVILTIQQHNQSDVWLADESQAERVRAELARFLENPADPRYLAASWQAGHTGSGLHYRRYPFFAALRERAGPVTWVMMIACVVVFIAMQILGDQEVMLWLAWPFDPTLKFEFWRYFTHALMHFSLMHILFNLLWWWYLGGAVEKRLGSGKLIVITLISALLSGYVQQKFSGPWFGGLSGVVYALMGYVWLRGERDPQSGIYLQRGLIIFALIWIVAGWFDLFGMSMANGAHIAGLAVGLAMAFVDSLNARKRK
Assay: gel-based substrate cleavage, SDS-PAGE densitometry, four-parameter fit
Assay type: biochemical

Question: `O=C1CC(c2ccccc2)N1C(=O)Oc1ccccc1` (racemic) [L29] was tested. Which IC50 did it give?
Answer: The IC50 was 1120 ± 50 nM.

Question: With `CC(C)COC(=O)N1C(=O)CC1c1ccccc1` (racemic) [L61] as the compound, how does the IC50 read?
Answer: The IC50 was 11700 ± 750 nM.

Question: Which IC50 does the source give for `O=C1CC(c2ccccc2)N1C(=O)OC1CCCC1` (racemic) [L62] here?
Answer: The IC50 was 5270 ± 80 nM.

Question: Which IC50 does the source give for `O=C1CC(c2ccccc2)N1C(=O)OCc1ccccc1` (centres unmarked) [L59] here?
Answer: The IC50 was 728 ± 60 nM.

Question: How did the IC50 turn out when `O=C1CC(c2ccccc2)N1C(=O)Oc1ccc(Cl)cc1` (centres unmarked) [L60] was run?
Answer: The IC50 was 1090 ± 30 nM.
